Broadly, the MIC is the least concentration at which growth counts as inhibited. Low readings indicate a more susceptible organism, high ones a less susceptible organism.

For experiment [1], the system named is Mycobacteroides abscessus. The experiment can be described thus: Antimycobacterial activity against Mycobacterium abscessus 21 by CLSI method. Type of experiment: functional.
The subject of experiment [2] is Mycolicibacterium peregrinum. The experiment is described as follows: Antimycobacterial activity against Mycobacterium peregrinum ATCC 700686 by CLSI method. Type of experiment: functional.
For experiment [3], the system named is Mycolicibacterium fortuitum. The experiment can be described thus: Antimycobacterial activity against Mycobacterium fortuitum 41 by CLSI method. It counts as functional.
In experiment [4] the test system is Mycobacteroides abscessus. The experiment can be described thus: Antimycobacterial activity against Mycobacterium abscessus 79 by CLSI method. Type of experiment: functional.
For experiment [5], the system named is Mycobacteroides abscessus. The experiment is described as follows: Antimycobacterial activity against Mycobacterium abscessus ATCC 19977 by CLSI method. Type of experiment: functional.
Experiment [6] concerns Mycobacteroides abscessus. The experiment is described as follows: Antimycobacterial activity against Mycobacterium abscessus 1 by CLSI method. Type of experiment: functional.
In the next experiment the test system is Mycobacteroides chelonae. The experiment can be described thus: Antimycobacterial activity against Mycobacterium chelonae 93 by CLSI method. Type of experiment: functional.
The subject of the next experiment is Mycobacterium avium. The experiment can be described thus: Antimycobacterial activity against Mycobacterium avium 101 by CLSI method. It counts as functional.
In experiment [7] the test system is Mycobacteroides abscessus. The experiment can be described thus: Antimycobacterial activity against Mycobacterium massiliense 119 by CLSI method. Type of experiment: functional, Mycobacterium abscessus subsp. massiliense.
Experiment [8] relates to Mycobacterium intracellulare. The experiment is described as follows: Antimycobacterial activity against Mycobacterium intracellulare 1956 by CLSI method. It counts as functional.
The subject of experiment [9] is Mycobacteroides abscessus. The experiment can be described thus: Antimycobacterial activity against Mycobacterium abscessus 103 by CLSI method. Type of experiment: functional.
The subject of experiment [10] is Mycobacterium tuberculosis. The experiment can be described thus: Antimycobacterial activity against Mycobacterium tuberculosis H37Rv MC2 6206 by CLSI method. Type of experiment: functional.

SMILES strings stand for the structures. ≈ marks a conversion by molar mass, not a printed value. A value given as a limit tells only on which side of the number the result lay.

Regarding `CC1CC(C(=O)Nc2nc3c(Cl)cccc3s2)CC(C)(C)C1` (centres undefined), the minimal inhibitory concentration (MIC) in [1] was 2 µg/mL (≈ 5.94 µM); in experiment [2], 1 µg/mL (≈ 2.97 µM); in experiment [3] it was 4 µg/mL (≈ 11.9 µM); in experiment [4], 4 µg/mL (≈ 11.9 µM); in [5] it was 16 µg/mL (≈ 47.5 µM); in experiment [6] it was 2 µg/mL (≈ 5.94 µM). In addition, the MIC against Mycobacteroides chelonae is 2 µg/mL (≈ 5.94 µM); in the experiment on Mycobacterium avium it was > 64 µg/mL; in experiment [7], 1 µg/mL (≈ 2.97 µM); in experiment [8] it was 16 µg/mL (≈ 47.5 µM).
As for `CC1CC(C(=O)Nc2nc3ccc(SC(F)(F)F)cc3s2)CC(C)(C)C1` (centres undefined), the MIC is 0.5 µg/mL (≈ 1.24 µM) in [1]; 8 µg/mL (≈ 19.9 µM) in [2]; > 64 µg/mL in [3]; 64 µg/mL (≈ 159 µM) in experiment [4]; 16 µg/mL (≈ 39.8 µM) in experiment [5]; 2 µg/mL (≈ 4.97 µM) in experiment [6]. Also, the minimum inhibitory concentration (MIC) against Mycobacteroides chelonae is 0.12 µg/mL (≈ 0.298 µM); against Mycobacterium avium, > 64 µg/mL; in experiment [7], 0.25 µg/mL (≈ 0.621 µM); in experiment [8], > 64 µg/mL; in experiment [9] it was 0.5 µg/mL (≈ 1.24 µM).
In the case of `CC1CC(C(=O)Nc2nc3cc(F)ccc3s2)CC(C)(C)C1` (centres undefined), the MIC is 0.5 µg/mL (≈ 1.56 µM) in experiment [1]; 4 µg/mL (≈ 12.5 µM) in experiment [2]; 2 µg/mL (≈ 6.24 µM) in experiment [3]; 2 µg/mL (≈ 6.24 µM) in experiment [4]; 1 µg/mL (≈ 3.12 µM) in [5]; 2 µg/mL (≈ 6.24 µM) in experiment [6]. For the same compound, the MIC against Mycobacteroides chelonae worked out at 2 µg/mL (≈ 6.24 µM); with Mycobacterium avium, 16 µg/mL (≈ 49.9 µM); in [7], 2 µg/mL (≈ 6.24 µM); in [8], 16 µg/mL (≈ 49.9 µM).
As to `O=C(Nc1nc2ccc(C(F)(F)F)cc2s1)C1CCC2(CC1)CC2`, the MIC in [1] was 16 µg/mL (≈ 45.1 µM); in [2] it was > 64 µg/mL; in experiment [3] it was > 64 µg/mL; in experiment [4], 16 µg/mL (≈ 45.1 µM); in experiment [5], 32 µg/mL (≈ 90.3 µM); in [6], 8 µg/mL (≈ 22.6 µM). Also, the MIC with Mycobacteroides chelonae was 4 µg/mL (≈ 11.3 µM); against Mycobacterium avium it was 64 µg/mL (≈ 181 µM); in experiment [7], 8 µg/mL (≈ 22.6 µM); in [10], 32 µg/mL (≈ 90.3 µM); in experiment [8] it was > 64 µg/mL.
As to `COc1ccc2nc(NC(=O)C3CC(C)CC(C)(C)C3)sc2c1` (centres undefined), the minimal inhibitory concentration (MIC) was 1 µg/mL (≈ 3.01 µM) in experiment [1]; 1 µg/mL (≈ 3.01 µM) in experiment [2]; 2 µg/mL (≈ 6.02 µM) in experiment [3]; 1 µg/mL (≈ 3.01 µM) in [4]; 1 µg/mL (≈ 3.01 µM) in experiment [5]; 2 µg/mL (≈ 6.02 µM) in experiment [6]. In addition, the minimum inhibitory concentration (MIC) in the experiment with Mycobacteroides chelonae stood at 0.25 µg/mL (≈ 0.752 µM); in the experiment with Mycobacterium avium it was 16 µg/mL (≈ 48.1 µM); in experiment [7] it was 0.5 µg/mL (≈ 1.5 µM); in experiment [10] it was 8 µg/mL (≈ 24.1 µM); in experiment [8], 8 µg/mL (≈ 24.1 µM).
`CC1CC(C(=O)Nc2nc3ccccc3s2)CC(C)(C)C1` (centres undefined): the MIC was 2 µg/mL (≈ 6.61 µM) in experiment [1]; 0.5 µg/mL (≈ 1.65 µM) in experiment [2]; 1 µg/mL (≈ 3.31 µM) in [3]; 1 µg/mL (≈ 3.31 µM) in [4]; 2 µg/mL (≈ 6.61 µM) in [6]; 1 µg/mL (≈ 3.31 µM) against Mycobacteroides chelonae. For the same compound, the minimal inhibitory concentration (MIC) against Mycobacterium avium is 8 µg/mL (≈ 26.5 µM); in [7], 2 µg/mL (≈ 6.61 µM); in experiment [10], 8 µg/mL (≈ 26.5 µM); in experiment [8], 8 µg/mL (≈ 26.5 µM); in [9], 1 µg/mL (≈ 3.31 µM).
On to `CC1CC(C(=O)Nc2nc3ccc(OC(F)F)cc3s2)CC(C)(C)C1` (centres undefined), for which the MIC worked out at 0.5 µg/mL (≈ 1.36 µM) in [1]; 0.12 µg/mL (≈ 0.326 µM) in experiment [2]; 0.5 µg/mL (≈ 1.36 µM) in experiment [3]; 0.5 µg/mL (≈ 1.36 µM) in experiment [4]; 1 µg/mL (≈ 2.71 µM) in experiment [6]; 0.25 µg/mL (≈ 0.679 µM) with Mycobacteroides chelonae. Also, the MIC in the experiment on Mycobacterium avium was > 64 µg/mL; in [7] it was 0.5 µg/mL (≈ 1.36 µM); in experiment [10] it was 2 µg/mL (≈ 5.43 µM); in [8], 8 µg/mL (≈ 21.7 µM); in [9], 0.5 µg/mL (≈ 1.36 µM).
For `CC12CC3CC(C)(C1)CC(C(=O)Nc1nc4ccccc4s1)(C3)C2`, the minimum inhibitory concentration (MIC) in experiment [5] turned out to be 1 µg/mL (≈ 2.94 µM); in the experiment on Mycobacterium avium it was 2 µg/mL (≈ 5.87 µM); in experiment [10], 4 µg/mL (≈ 11.7 µM); in [8], 2 µg/mL (≈ 5.87 µM).
As for `CC12CCCC(C(=O)Nc3nc4cc(Br)ccc4s3)(CCC1)C2`, the minimum inhibitory concentration (MIC) in experiment [1] is 0.06 µg/mL (≈ 0.153 µM); in experiment [2], ≤ 0.07 µg/mL; in experiment [3] it was 0.03 µg/mL (≈ 0.0763 µM); in [4], 0.06 µg/mL (≈ 0.153 µM); in experiment [6], 0.25 µg/mL (≈ 0.636 µM); against Mycobacteroides chelonae it was 0.06 µg/mL (≈ 0.153 µM). Further, the MIC against Mycobacterium avium is 4 µg/mL (≈ 10.2 µM); in experiment [7], 0.06 µg/mL (≈ 0.153 µM); in experiment [10], ≤ 0.12 µg/mL; in experiment [8], 1 µg/mL (≈ 2.54 µM); in experiment [9] it was 0.06 µg/mL (≈ 0.153 µM).
As for `CC1CC(C(=O)Nc2nc3c(F)c(F)c(F)cc3s2)CC(C)(C)C1` (centres undefined), the MIC in experiment [1] worked out at 0.5 µg/mL (≈ 1.4 µM); in [2], 0.12 µg/mL (≈ 0.337 µM); in [3], 0.25 µg/mL (≈ 0.701 µM); in [4], 0.25 µg/mL (≈ 0.701 µM); in [6] it was 0.5 µg/mL (≈ 1.4 µM); against Mycobacteroides chelonae, 0.25 µg/mL (≈ 0.701 µM). For the same compound, the minimum inhibitory concentration (MIC) is > 64 µg/mL against Mycobacterium avium; 0.5 µg/mL (≈ 1.4 µM) in experiment [7]; 1 µg/mL (≈ 2.81 µM) in [10]; > 64 µg/mL in [8]; 0.5 µg/mL (≈ 1.4 µM) in experiment [9].
Consider `O=C(Nc1nc2ccc(C(F)(F)F)cc2s1)C1CC2CCC1C2` (centres undefined), for which the results for the MIC (in [5]; against Mycobacterium avium; in experiment [8]) were > 64 µg/mL, 32 µg/mL (≈ 94 µM) and 32 µg/mL (≈ 94 µM), respectively.
